These results are taken from publication PMC6978316, “Development of chimeric peptides to facilitate the neutralisation of lipopolysaccharides during bactericidal targeting of multidrug-resistant Escherichia coli” (Communications Biology, 2020).

Where a SMILES comes first, the peptide text is derived from it. Bridges are numbered along the chain shown (N, C = ends). Some results are limits rather than exact numbers.

The test system of series [1] is MDR E. coli CVCC195. The experiment in a line: Time-killing curves (bactericidal kinetics). Format: cell-based, Escherichia coli. The conditions noted are these: 1 × or 2 × MIC, MHB, 37 °C. The protocol: The bactericidal effect of peptides was investigated according to previous methods. […] Physiological saline was added as a control. Bacterial samples (100 μl) were removed at different time points (0, 0.5, 1, 2, 4, 6, 8, 10, and 12 h) and were counted on MH solid plates. The time-killing curve of A6 and G6 was plotted.

The subject of series [2] is MDR E. coli CVCC195. The experiment in a line: Thermal stability, residual antibacterial activity (inhibition zone). The following applies: mean of n = 3. Format: physicochemical, Escherichia coli.
Protocol: The N6, A6, and G6 solutions were treated at different temperatures (20–100 °C) for 1 h, dissolved and incubated at different pH values (2–10) for 3 h, or incubated with trypsin or pepsin for 4 h. The inhibition zone diameters were measured after incubation at 37 °C for 18–24 h.
Series [3] deals with E. coli CVCC195. Format: cell-based, Escherichia coli. The following applies: E. coli CVCC195. The protocol:
Bacterial resistance against the peptides was assessed via the MIC assays. […] After 16–18 h of incubation at 37 °C, cells from the second highest concentration showing visible growth were used to inoculate the subsequent cultures. The MIC values for drug passage cultures were obtained as described above. This process was repeated for 30 d.

Series [4] has as its system MDR E. coli CVCC195. In words: SEM and TEM, cell morphology and ultrastructure. Format: cell-based, Escherichia coli. The conditions noted are these: E. coli CVCC195, 4 × MIC, 2 h; at least 200 cells scored; manuscript lines quoted in the peer review file. On the procedure:
SEM was used to examine the ultrastructural changes in bacteria treated with peptides. […] PBS was used as the negative control. After centrifugation, the bacterial precipitation was added with 2.5% glutaraldehyde and the cells were fixed at 4 °C for 24 h. After ethanol dehydration, drying and coating, samples were visualized by a QUANTA200 SEM (FEI, Philips, Netherlands)[65].
The processing and preparation of TEM samples was similar to that of SEM until glutaraldehyde fixation. After washing with PBS, bacterial cells were fixed in 1% […] buffer for 1 h, dehydrated in a series of acetone (50–100%) and embedded, followed by preparation into ultra-thin sections and staining with 1% uranyl acetate. […] At least 200 bacterial cells were visualized and scored for the observed characteristics.

For series [5], the system named is E. coli LPS. In words: BODIPY-TR-cadaverine (BC) displacement assay. Format: binding, Escherichia coli. The conditions noted are these: 100 μM. On the procedure: The affinity of SCPs (A6, G6, and N6) to E. coli LPS was detected by the fluorescent BC probe. The binding of fluorescent probe with LPS can cause fluorescence quenching. When peptides bind to LPS, BC probe can be replaced, which can result in an increase in fluorescence. Equal volumes of LPS (40 μg per ml) and BC probe (10 μM) in 50 mM Tris buffer (pH 7.4) were mixed and added into a black 96-well microtiter plate (180 μl mixture per well), followed by the addition of different concentrations of A6, G6, or N6 (20 μl per well). Ampicillin and PMB were used as the negative and positive control, respectively. Changes in fluorescence were measured by a fluorescence spectrophotometry at room temperature (excitation: 580 nm, emission: 620 nm) and the BC displacement rate was calculated.

In series [6] the test system is binding of FITC-labeled LPS to RAW 264.7 cells. The experiment in a line: Binding of FITC-labeled LPS to macrophages (flow cytometry). Format: cell-based, mouse. The following applies: FITC-LPS 100 μg per ml, 0.1 μM peptide 1 h. The protocol: Similarly, after an incubation with FITC-labeled LPS and washing with medium, cells were incubated with rhodamine-labeled A6 or G6 (0.1 μM) at 37 °C for 1 h. After washing again, the effects of peptides on the binding of FITC-labeled LPS to the cells were analyzed by CLSM and flow cytometry, respectively.
For orientation: Flow cytometry measures light scatter and fluorescence of single cells or particles in a stream.

In series [7] the test system is TNF-α, IL-6 and IL-10 in LPS-stimulated RAW 264.7 cells. The experiment in a line: Cytokines in LPS-stimulated macrophages (ELISA). It is filed as cell-based, mouse. The arrangement: unit not given here. On the procedure:
Macrophages RAW 264.7 were incubated with LPS (0.1 and 1 μg per ml) that was dissolved in serum-free DMEM medium, and then were treated with A6, G6, N6, or PMB (20 μM) alone in 24-well plates (2.5 × 10^5 cells per well). The cells incubated with serum-free DMEM and LPS were used as a control. After treatment for 2 h, the supernatants were collected and assessed for TNF-α, IL-6, and IL-10 by using the ELISA kits in the Jiaxuan Biotech. Co. Ltd. (Beijing, China).
73 Supplementary Figure 15. Effects of SCPs on cytokines in RAW 264.7 ells. Cells were incubated with 0.1 μg per
74 ml (a) or 1 μg per ml (b) LPS and 20 μM A6, G6, N6 or PMB for 2 h. The levels of TNF-α, IL-6 and IL-10 in
75 supernatants were measured using ELISA. The data are given as the mean ± SD (n = 3 independent experiments).
76 Different lower case letters indicate a significant difference between two groups (p < 0.05).
(1 picture or pasted object on this page, not shown here)

In series [8] the test system is E. coli LPS. In words: Sepsis mouse model, survival after lethal LPS challenge. Format: in vivo, ICR mice. The following applies: mice, LPS 13.5 mg per kg i.p., 7 d, n = 5. On the procedure: The mouse survival was recorded for 7 d. The mice injected with LPS or saline were used as negative or blank controls, respectively.
The test system of series [9] is NF-κB p-p65 subunit. In words: Western blotting of lung tissues, p-p65/p65. Format: in vivo, mice. The protocol: (§1) Additionally, the mice were sacrificed at 8 h and the lung tissues were homogenized and suspended in […] HEPES buffer for 20 min according to standard procedures. After centrifugation at 4 °C for 20 min (12,000 rpm), the protein levels of supernatants were quantified using a Bradford protein assay kit. A total of 30 μg proteins were analyzed on an 8–12% sodium dodecyl sulfate-polyacrylamide gel electrophoresis (SDS-PAGE) gel and were immunoblotted onto PVDF membranes, followed by an incubation with the primary antibodies of p65, p-p65, extracellular signal-regulated kinase (ERK)1/2, p-ERK1/2, and IκBα overnight at 4 °C. After washing, the blots were incubated with the peroxidase conjugated goat-rabbit or goat-mouse antibodies. Relative protein expression levels were quantified by a densitometric measurement of chemiluminescence (ECL) reaction band. β-actin was used as the internal reference.
Background: Immunoblotting shows a protein as a band on a membrane.

Series [10] relates to ERK1/2 phosphorylation. The experiment in a line: Western blotting of lung tissues, p-ERK1/2/ERK1/2. Format: in vivo, mice. On the procedure: as §1
Series [11] relates to IκBα. The experiment in a line: Western blotting of lung tissues, IκBα/β-actin. It is filed as in vivo, mice. The protocol: as §1
[12] abbreviates: RAW 264.7 cells incubated with 0.1 μg per ml LPS.
[13] abbreviates: RAW 264.7 cells incubated with 1 μg per ml LPS.
Where [14] appears, read: lung tissue 8 h, LPS 13.5 mg per kg, western blotting, densitometry.

For the molecule `CC(C)[C@@H]1NC(=O)CNC(=O)[C@H](CC(N)=O)NC(=O)[C@H](CCCNC(=N)N)NC(=O)[C@H](Cc2ccc(O)cc2)NC(=O)[C@H](C(C)C)NC(=O)[C@@H](NC(=O)[C@@H](NC(=O)[C@H](CC(N)=O)NC(=O)[C@H](Cc2c[nH]c3ccccc23)NC(=O)[C@H](C)NC(=O)[C@H](Cc2ccccc2)NC(=O)CNC(=O)[C@H](CO)NC(=O)CNC(=O)CNC(=O)CNC(=O)CNC(=O)[C@H](CCCCN)NC(=O)[C@H](Cc2ccccc2)NC(=O)[C@H](Cc2ccccc2)NC(=O)[C@H](CO)NC(=O)[C@H](C)NC(=O)[C@H](CCCNC(=N)N)NC(=O)[C@@H](NC(=O)[C@H](CCCCN)NC(=O)[C@H](Cc2c[nH]c3ccccc23)NC(=O)[C@H](CCCNC(=N)N)NC(=O)CNC(=O)[C@H](CCC(N)=O)NC(=O)[C@@H](NC(=O)[C@@H](N)CCCNC(=N)N)C(C)C)C(C)C)C(C)C)CSSC[C@@H](C(=O)N[C@@H](Cc2c[nH]cn2)C(=O)N[C@@H](CCCNC(=N)N)C(=O)N[C@@H](CCCNC(=N)N)C(=O)N[C@@H](C)C(=O)N[C@@H](CC(N)=O)C(=O)O)NC(=O)[C@H](C(C)C)NC(=O)[C@H](CCCNC(=N)N)NC1=O` [G6] (H-RVQGRWKVRASFFKGGGGSGFAWNVCVYRNGVRVCHRRAN-OH; disulfide 26-35), the “time to completely kill E. coli CVCC195” value in series [1] is ≤ 1 h. In addition, the “antibacterial activity after heat treatment (inhibition zone diameter), Mean” value is 1.451 in [2] (20℃ for 1 h, inhibition zone vs E. coli CVCC195 after 37 °C 18–24 h); 1.421 in [2] (40℃ for 1 h, inhibition zone vs E. coli CVCC195); 1.5 in [2] (60℃ for 1 h, inhibition zone vs E. coli CVCC195); 1.473 in series [2] (80℃ for 1 h, inhibition zone vs E. coli CVCC195); 1.413 in [2] (100℃ for 1 h, inhibition zone vs E. coli CVCC195). In addition, the “change of MIC over the course of 30 serial passages” value in series [3] is given as “hardly changed”. Also, the “abnormal cells in TEM (lysis, non-uniform cytoplasmic electron and morphologically abnormal cells)” value in series [4] is listed as ~50%. Further, the BC displacement ratio in [5] came out at 100%. For the same molecule, in series [6], the “inhibition rate of FITC-labeled LPS binding to RAW 264.7 cells” value is recorded as 44.3%. Further, the “IL-6 Mean” value in series [7] (setting [12]) was determined as 280.633; in series [7] (setting [13]), 352.733. The entries for the “IL-10 Mean” value in series [7] (setting [12]) and in series [7] (setting [13]) were 106.633 and 142.667, respectively. For the same molecule, the “TNFα Mean” value is 481.5 in [7] (setting [12]) and 599.567 in series [7] (setting [13]). Besides, in series [8] (0.0625 μmol per kg), the survival rate is reported as 80%. The same molecule displayed a mouse survival in series [8] (0.125 μmol per kg) of 100%. Besides, the “densitometric analysis of p-p65/p65 ratio” value in series [9] (LPS + substance, Mean) was 0.7685. Also, in series [9] (setting [14]), the “inhibition of LPS-induced translocation of the NF-κB p-p65 subunit” value is reported as 25.3%. In [10] (LPS + substance, Mean), the “densitometric analysis of p-ERK1/2/ERK1/2 ratio” value was determined as 0.1248. Also, in series [10] (setting [14]), the “attenuation of ERK1/2 phosphorylation” value was determined as 88.2%. Moreover, the “densitometric analysis of IκBα/β-actin ratio” value in [11] (LPS + substance, Mean) came out at 0.9933. Further, the “effect on LPS-induced IκBα levels” value in series [11] (lung tissue 8 h, LPS 13.5 mg per kg, western blotting) is on record as “promoted LPS-induced IκBα levels”.
